Results from publication PMC7614387 (Chemical communications (Cambridge, England), 2021).

Molecular target: T1, LptH (Pseudomonas aeruginosa, UniProt Q9HVV7)
T1 sequence (Q9HVV7 25-175): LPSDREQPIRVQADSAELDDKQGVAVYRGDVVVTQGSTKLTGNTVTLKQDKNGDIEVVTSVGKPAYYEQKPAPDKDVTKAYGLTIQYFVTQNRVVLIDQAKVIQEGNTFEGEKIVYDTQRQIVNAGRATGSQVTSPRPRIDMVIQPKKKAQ
Assay: native mass spectrometry
Format: biochemical, P. aeruginosa
Conditions: for Emax (in words): comparison within 2a derivatives

Row | Emax (in words) (nMS) | further results | SMILES
1 | – | Emax (pH 8, read-out: Emax, maximum achievable monomer mole fraction): 73 ± 2% | Clc1cc2c(c3ncccc13)OCN(CCc1ccccc1)C2 [1a]
2 | – | increase in the monomer mole fraction (in words) (100 μM compound, nMS): minimal increase | O=C(O)c1ccc(O)c2ncccc12 [2a, 5-carboxy-8-hydroxyquinoline]
3 | highest Emax values of the series | – | COC(=O)CCCNC(=O)c1ccc(O)c2ncccc12 [2c]
4 | highest Emax values of the series | – | COCOc1ccc(C(=O)NCCCC(=O)OC)c2cccnc12 [2e]
